These compounds were tested against human A2A receptor (A2AR) (Homo sapiens, UniProt P29274) (assay: Luciferase reporter assay (HEK293-A2AR-luc2p/CRE/Hygro cells, 3 nM CGS21680)). Conditions: 3 nM CGS21680, 5 h incubation.
Type: cell-based
Summary of the method: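 Antagonist (0.1–10000 nM) and 3 nM CGS21680 were co-added for 5 h to stable HEK293-A2AR-luc2p/CRE cells, 18 h after seeding in 1% FBS medium containing adenosine deaminase. Luminescence was normalized to agonist alone (100%), and IC50 came from the dose–inhibition curve.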

Sequence of human A2A receptor (A2AR) (P29274 whole entry): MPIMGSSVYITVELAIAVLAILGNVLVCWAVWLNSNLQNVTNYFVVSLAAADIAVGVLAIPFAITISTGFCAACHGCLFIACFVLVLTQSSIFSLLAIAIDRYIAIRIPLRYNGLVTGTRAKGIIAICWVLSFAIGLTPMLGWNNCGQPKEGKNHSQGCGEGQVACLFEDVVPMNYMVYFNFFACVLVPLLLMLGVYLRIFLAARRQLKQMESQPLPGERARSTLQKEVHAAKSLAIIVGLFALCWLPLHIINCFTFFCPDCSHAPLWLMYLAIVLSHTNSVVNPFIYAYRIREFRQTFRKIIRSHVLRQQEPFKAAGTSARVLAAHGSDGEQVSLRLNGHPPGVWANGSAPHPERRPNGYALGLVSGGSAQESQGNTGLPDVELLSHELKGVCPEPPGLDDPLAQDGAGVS

SMILES | IC50 [nM]
CN1CCN(CCOc2ccc(N3CCN(C(=O)[C@](C)(c4ccccc4)n4ncc5c4nc(N)n4nc(-c6ccco6)nc54)CC3)cc2)CC1 [Compound A81a, (S)-2-(5-amino-2-(furan-2-yl)-7H-pyrazolo[4,3-e][1,2,4]triazolo[1,5-c]pyrimidin-7-yl)-1-(4-(4-(2-(4-methylpiperazin-1-yl)ethoxy)phenyl)piperazin-1-yl)-2-phenylpropan-1-one] | 7.9
CN1CCN(CCOc2ccc(N3CCN(C(=O)[C@@](C)(c4ccccc4)n4ncc5c4nc(N)n4nc(-c6ccco6)nc54)CC3)cc2)CC1 [Compound A81b, (R)-2-(5-amino-2-(furan-2-yl)-7H-pyrazolo[4,3-e][1,2,4]triazolo[1,5-c]pyrimidin-7-yl)-1-(4-(4-(2-(4-methylpiperazin-1-yl)ethoxy)phenyl)piperazin-1-yl)-2-phenylpropan-1-one] | 2.6
CN1CCN(CCCOc2ccc(N3CCN(C(=O)C(C)(c4ccccc4)n4ncc5c4nc(N)n4nc(-c6ccco6)nc54)CC3)cc2)CC1 (stereo not drawn) [Compound A82, 2-(5-amino-2-(furan-2-yl)-7H-pyrazolo[4,3-e][1,2,4]triazolo[1,5-c]pyrimidin-7-yl)-1-(4-(4-(3-(4-methylpiperazin-1-yl)propoxy)phenyl)piperazin-1-yl)-2-phenylpropan-1-one] | 7.1
CN1CCN(CCCOc2ccc(N3CCN(C(=O)[C@](C)(c4ccccc4)n4ncc5c4nc(N)n4nc(-c6ccco6)nc54)CC3)cc2)CC1 [Compound A82a, (S)-2-(5-amino-2-(furan-2-yl)-7H-pyrazolo[4,3-e][1,2,4]triazolo[1,5-c]pyrimidin-7-yl)-1-(4-(4-(3-(4-methylpiperazin-1-yl)propoxy)phenyl)piperazin-1-yl)-2-phenylpropan-1-one] | 12.2
CN1CCN(CCCOc2ccc(N3CCN(C(=O)[C@@](C)(c4ccccc4)n4ncc5c4nc(N)n4nc(-c6ccco6)nc54)CC3)cc2)CC1 [Compound A82b, (R)-2-(5-amino-2-(furan-2-yl)-7H-pyrazolo[4,3-e][1,2,4]triazolo[1,5-c]pyrimidin-7-yl)-1-(4-(4-(3-(4-methylpiperazin-1-yl)propoxy)phenyl)piperazin-1-yl)-2-phenylpropan-1-one] | 4.9
CC(C(=O)N1CCN(c2ccc(C(=O)NCC3(O)COC3)cc2)CC1)(c1ccccc1)n1ncc2c1nc(N)n1nc(-c3ccco3)nc21 (stereo not drawn) [Compound A83, 4-(4-(2-(5-amino-2-(furan-2-yl)-7H-pyrazolo[4,3-e][1,2,4]triazolo[1,5-c]pyrimidin-7-yl)-2-phenylpropanoyl)piperazin-1-yl)-N-((3-hydroxyoxetan-3-yl)methyl)benzamide] | 3.7
CCC(C(=O)N1CCN(c2ccc(OCCOC)cc2)CC1)(c1ccccc1)n1ncc2c1nc(N)n1nc(-c3ccco3)nc21 (stereo not drawn) [Compound A84, 2-(5-amino-2-(furan-2-yl)-7H-pyrazolo[4,3-e][1,2,4]triazolo[1,5-c]pyrimidin-7-yl)-1-(4-(4-(2-methoxyethoxy)phenyl)piperazin-1-yl)-2-phenylbutan-1-one] | 28.3
CC(C(=O)N1CCN(c2ccc(OCCCN3CCCCC3)cc2)CC1)(c1ccccc1)n1ncc2c1nc(N)n1nc(-c3ccco3)nc21 (stereo not drawn) [Compound A85, 2-(5-amino-2-(furan-2-yl)-7H-pyrazolo[4,3-e][1,2,4]triazolo[1,5-c]pyrimidin-7-yl)-2-phenyl-1-(4-(4-(3-(piperidin-1-yl)propoxy)phenyl)piperazin-1-yl)propan-1-one] | 11.6
COCCOc1ccc(N2CCN(C(=O)C(C)(c3cccc(F)c3)n3ncc4c3nc(N)n3nc(-c5ccco5)nc43)CC2)cc1 (stereo not drawn) [Compound A86, 2-(5-amino-2-(furan-2-yl)-7H-pyrazolo[4,3-e][1,2,4]triazolo[1,5-c]pyrimidin-7-yl)-2-(3-fluorophenyl)-1-(4-(4-(2-methoxyethoxy)phenyl)piperazin-1-yl)propan-1-one] | 6.8
COCCOc1ccc(N2CCN(C(=O)C(C)(c3ccccc3F)n3ncc4c3nc(N)n3nc(-c5ccco5)nc43)CC2)cc1 (stereo not drawn) [Compound A87, 2-(5-amino-2-(furan-2-yl)-7H-pyrazolo[4,3-e][1,2,4]triazolo[1,5-c]pyrimidin-7-yl)-2-(2-fluorophenyl)-1-(4-(4-(2-methoxyethoxy)phenyl)piperazin-1-yl)propan-1-one] | 2
CN(C)C(=O)c1cccc(N2CCN(C(=O)C(C)(c3ccccc3)n3ncc4c3nc(N)n3nc(-c5ccco5)nc43)CC2)c1 (stereo not drawn) [Compound A88, 3-(4-(2-(5-amino-2-(furan-2-yl)-7H-pyrazolo[4,3-e][1,2,4]triazolo[1,5-c]pyrimidin-7-yl)-2-phenylpropanoyl)piperazin-1-yl)-N,N-dimethylbenzamide] | 7
CC(C(=O)N1CCN(c2cccc(C(=O)N3CCCCC3)c2)CC1)(c1ccccc1)n1ncc2c1nc(N)n1nc(-c3ccco3)nc21 (stereo not drawn) [Compound A89, 2-(5-amino-2-(furan-2-yl)-7H-pyrazolo[4,3-e][1,2,4]triazolo[1,5-c]pyrimidin-7-yl)-2-phenyl-1-(4-(3-(piperidine-1-carbonyl)phenyl)piperazin-1-yl)propan-1-one] | 13.8

Now from value to compound:

IC50 [nM] | SMILES
14.1 | CC(C(=O)N1CCN(c2cccc(C(=O)NC3CCCCC3)c2)CC1)(c1ccccc1)n1ncc2c1nc(N)n1nc(-c3ccco3)nc21 (stereo not drawn) [Compound A90, 2-(5-amino-2-(furan-2-yl)-7H-pyrazolo[4,3-e][1,2,4]triazolo[1,5-c]pyrimidin-7-yl)-2-phenyl-1-(4-(3-(cyclohexanaminocarbonyl)phenyl)piperazin-1-yl)propan-1-one]
3.3 | CC(C(=O)N1CCN(c2cccc(C(=O)NCC3(O)COC3)c2)CC1)(c1ccccc1)n1ncc2c1nc(N)n1nc(-c3ccco3)nc21 (stereo not drawn) [Compound A91, 3-(4-(2-(5-amino-2-(furan-2-yl)-7H-pyrazolo[4,3-e][1,2,4]triazolo[1,5-c]pyrimidin-7-yl)-2-phenylpropanoyl)piperazin-1-yl)-N-((3-hydroxyoxetan-3-yl)methyl)benzamide]
2.7 | CNC(=O)c1ccc(N2CCN(C(=O)C(C)(c3ccccc3)n3ncc4c3nc(N)n3nc(-c5ccco5)nc43)CC2)cc1 (stereo not drawn) [Compound A92, 4-(4-(2-(5-amino-2-(furan-2-yl)-7H-pyrazolo[4,3-e][1,2,4]triazolo[1,5-c]pyrimidin-7-yl)-2-phenylpropanoyl)piperazin-1-yl)-N-methylbenzamide]
0.6 | COCCOc1ccc(N2CCN(C(=O)C(C)(c3ccccc3OC)n3ncc4c3nc(N)n3nc(-c5ccco5)nc43)CC2)cc1 (stereo not drawn) [Compound A93, 2-(5-amino-2-(furan-2-yl)-7H-pyrazolo[4,3-e][1,2,4]triazolo[1,5-c]pyrimidin-7-yl)-1-(4-(4-(2-methoxyethoxy)phenyl)piperazin-1-yl)-2-(2-methoxyphenyl)propan-1-one]
3.8 | CC(C(=O)N1CCN(c2ccccc2C(=O)NC2CCCCC2)CC1)(c1ccccc1)n1ncc2c1nc(N)n1nc(-c3ccco3)nc21 (stereo not drawn) [Compound A94, 2-(4-(2-(5-amino-2-(furan-2-yl)-7H-pyrazolo[4,3-e][1,2,4]triazolo[1,5-c]pyrimidin-7-yl)-2-phenylpropanoyl)piperazin-1-yl)-N-cyclohexylbenzamide]
31.1 | COCCOc1ccc(N2CCN(C(=O)C(C)(c3ccccc3)n3ncc4c3nc(N)n3nc(-c5nccnc5C)nc43)CC2)cc1 (stereo not drawn) [Compound A95, 2-(5-amino-2-(3-methylpyrazin-2-yl)-7H-pyrazolo[4,3-e][1,2,4]triazolo[1,5-c]pyrimidin-7-yl)-1-(4-(4-(2-methoxyethoxy)phenyl)piperazin-1-yl)-2-phenylpropan-1-one]
13.7 | CN(C)C(=O)c1ccccc1N1CCN(C(=O)C(C)(c2ccccc2)n2ncc3c2nc(N)n2nc(-c4ccco4)nc32)CC1 (stereo not drawn) [Compound A96, 2-(4-(2-(5-amino-2-(furan-2-yl)-7H-pyrazolo[4,3-e][1,2,4]triazolo[1,5-c]pyrimidin-7-yl)-2-phenylpropanoyl)piperazin-1-yl)-N,N-dimethylbenzamide]
335 | COCCOc1ccc(N2CCN(C(=O)C(C)(Cc3ccccc3)n3ncc4c3nc(N)n3nc(-c5ccco5)nc43)CC2)cc1 (stereo not drawn) [Compound A97, 2-(5-amino-2-(furan-2-yl)-7H-pyrazolo[4,3-e][1,2,4]triazolo[1,5-c]pyrimidin-7-yl)-1-(4-(4-(2-methoxyethoxy)phenyl)piperazin-1-yl)-2-methyl-3-phenylpropan-1-one]
7.2 | CC(C(=O)N1CCN(c2ccc(C(=O)NC3CCCCC3)cc2)CC1)(c1ccccc1)n1ncc2c1nc(N)n1nc(-c3ccco3)nc21 (stereo not drawn) [Compound A98, 4-(4-(2-(5-amino-2-(furan-2-yl)-7H-pyrazolo[4,3-e][1,2,4]triazolo[1,5-c]pyrimidin-7-yl)-2-phenylpropanoyl)piperazin-1-yl)-N-cyclohexylbenzamide]
28.6 | CC(C(=O)N1CCN(c2ccccc2C(=O)N2CCCCC2)CC1)(c1ccccc1)n1ncc2c1nc(N)n1nc(-c3ccco3)nc21 (stereo not drawn) [Compound A99, 2-(5-amino-2-(furan-2-yl)-7H-pyrazolo[4,3-e][1,2,4]triazolo[1,5-c]pyrimidin-7-yl)-2-phenyl-1-(4-(2-(piperidine-1-carbonyl)phenyl)piperazin-1-yl)propan-1-one]
25 | CC(C(=O)N1CCN(c2ccccc2C(=O)NCC2(O)COC2)CC1)(c1ccccc1)n1ncc2c1nc(N)n1nc(-c3ccco3)nc21 (stereo not drawn) [Compound A100, 2-(4-(2-(5-amino-2-(furan-2-yl)-7H-pyrazolo[4,3-e][1,2,4]triazolo[1,5-c]pyrimidin-7-yl)-2-phenylpropanoyl)piperazin-1-yl)-N-((3-hydroxyoxetan-3-yl)methyl)benzamide]
3.9 | CC(C(=O)N1CCN(c2ccc(OCCN3CCCC3)cc2)CC1)(c1ccccc1)n1ncc2c1nc(N)n1nc(-c3ccco3)nc21 (stereo not drawn) [Compound A101, 2-(5-amino-2-(furan-2-yl)-7H-pyrazolo[4,3-e][1,2,4]triazolo[1,5-c]pyrimidin-7-yl)-2-phenyl-1-(4-(4-(2-(pyrrolidin-1-yl)ethoxy)phenyl)piperazin-1-yl)propan-1-one]

Reference: patent publication US20210300936A1, “PYRAZOLOTRIAZOLOPYRIMIDINE DERIVATIVES AS A2A RECEPTOR ANTAGONIST” (BEIGENE, LTD., priority 2018, published 2021)
